Data as given in PMC8944987, “In Vivo Efficacy of SQ109 against Leishmania donovani, Trypanosoma spp. and Toxoplasma gondii and In Vitro Activity of SQ109 Metabolites” (Biomedicines, 2022).
Like-named read-outs stand apart in the source and are kept apart here.

Experiments:
[1] = Host cell toxicity in the T. cruzi amastigote assay; assay type: cell-based; details: human
Protocol: U2OS human osteosarcoma cells were maintained in DMEM supplemented with high glucose, 10% FBS, and 1% P/S at 37 °C with 5% CO2 in air. […] Cell images were acquired by an automated image analyzer (Operetta, Perkin Elmer Technology, Waltham, MA, USA); analysis included at least 1000 cells in five fields per well. For the imaging of infected cells and parasites, Draq-5 was observed under a 20× air objective. An image analysis algorithm (Columbus, Perkin Elmer Technology) was used to detect the Draq-5 signal in the nuclei of cells and parasites as described in a previous article and shown in Supplementary Figure S1 [20]. The number of parasites was defined by the value of the number of parasites in infected cells of the acquired image.

[2] = tested on: L. mexicana promastigotes; set-up: method as in PMID 27458218; details: cited from earlier work
[3] = tested on: intracellular L. donovani amastigotes in THP-1; assay: L. donovani intracellular amastigotes assay in THP-1 (image based); assay type: cell-based
[4] = tested on: L. donovani promastigotes; assay: L. donovani promastigotes assay (resazurin); assay type: cell-based; details: Leishmania donovani
[5] = tested on: L. donovani promastigotes; set-up: method as in PMID 31897791; details: cited from earlier work
T. cruzi epimastigotes = tested on: T. cruzi epimastigotes; set-up: method as in PMID 25583723; details: cited from earlier work

For `CC(C)=CCC/C(C)=C/CNCCNC1C2CC3CC(C2)CC1C3` (stereo not drawn) [SQ109, N-adamantan-2-yl-N’-((E)-3,7-dimethyl-octa-2,6-dienyl)-ethane-1,2-diamine], the CC50 at 3 days ([1]; 3 days of compound incubation, Figure 2D, read-out: half-maximal cytotoxic concentration (CC50) against the host U2OS) is listed as 2.95 µM, the CC50 at 3 days ([1]; amastigote host cells, read-out: T. cruzi Dm28c CC50 (U2OS)) is listed as 3.6 µM and the IC50 [2] is listed as ~0.5 µM. The “anti-amastigote activity in the current study less than the reported one” value ([3]; L. donovani, THP-1 (this study) versus J774 (ref 10)) was ~ 200 fold, the IC50 ([3]; Leishmania donovani, 72 h, differentiated THP-1 host cells, 3 days of compound incubation, Figure 2F) was 1.38 µM and the EC50 ([4]; promastigotes, read-out: L. donovani EC50 (PRO)) was 0.28 µM. For the same compound, the IC50 ([4]; 72 h, Figure 2E, read-out: IC50, L. donovani promastigote growth) was 0.175 µM, the IC50 [5] was 0.63 µM and the IC50 (T. cruzi epimastigotes) was 4.6 µM.
